Assay [1] addresses Human immunodeficiency virus type 1 integrase (Human immunodeficiency virus 1) (UniProt Q7ZJM1). Briefly: (§1) Inhibition of HIV1 integrase activity by measuring multimerization of His-tagged integrase/FLAG-tagged integrase incubated for 3 hrs by […] HTRF assay. On the technique in general: In TR-FRET formats the signal depends on donor and acceptor labels being close together.

The nature of assay [2]: Inhibition of His-tagged HIV-1 integrase/FLAG-tagged LEDGF (unknown origin) protein-protein interaction preincubated with integrase for 30 mins followed by LEDGF/p75 addition and measured after overnight incubation by HTRF assay.
The nature of assay [3]: (§2) Inhibition of 6His-tagged recombinant HIV-1 integrase/biotinylated HIV-1 transactivation response element RNA interaction assessed as […] preincubated with integrase for 2 hrs followed by RNA addition and measured after 1 hrs by ALPHAscreen based AlphaLISA. Set-up: species or system Human immunodeficiency virus 1. A general note: Alpha assays give light when donor and acceptor beads are brought close together.

The subject of assay [4] is Human immunodeficiency virus 1. In words: Antiviral activity against VSV-G pseudotyped HIV-1 NL4.3 (isolated from HEK293T cells viral stock supernatant) infected in human MT4 cells assessed as inhibition of early stage viral replication preincubated for 3 to 4 hrs in presence of polybrene followed by fresh media replacement with compound and measured after 48 hrs by flow cytometric analysis. In kind it is functional, organism-based. The note with it: Human immunodeficiency virus 1, NL4.3, MT4.

Assay [5] deals with Human immunodeficiency virus 1. In words: Antiviral activity against VSV-G pseudotyped HIV-1 NL4.3 (isolated from compound pretreated HEK293T cells viral stock supernatant) infected in human MT4 cells assessed as inhibition of late stage viral replication at 25 microM preincubated for 3 to 4 hrs in presence of polybrene followed by fresh media replacement with compound and measured after 48 hrs by flow cytometric analysis relative to …. Format: functional. The note with it: Human immunodeficiency virus 1, NL4.3, MT4, time 51-52 hrs. (Flow cytometry measures light scatter and fluorescence of single cells or particles in a stream.)

Assay [6] addresses T1, Human immunodeficiency virus type 1 integrase (Human immunodeficiency virus 1, UniProt Q7ZJM1). In words: Inhibition of HIV-1 integrase catalytic activity incubated for 1 hrs in absence of LEDGF/p75 by HTRF assay.
Assay [7] has as its system Human immunodeficiency virus 1. The assay is described as §2. The note with it: time 3.0 hrs.
In assay [8] the test system is Human immunodeficiency virus 1. In words: Antiviral activity against VSV-G pseudotyped HIV-1 NL4.3 (isolated from compound pretreated HEK293T cells viral stock supernatant) infected in human MT4 cells assessed as inhibition of late stage viral replication preincubated for 3 to 4 hrs in presence of polybrene followed by fresh media replacement with compound and measured after 48 hrs by flow cytometric analysis. In kind it is functional, organism-based. The following applies: time 51-52 hrs.

In assay [9] the test system is Human immunodeficiency virus 1. In words: Antiviral activity against VSV-G pseudotyped HIV-1 NL4.3 (isolated from HEK293T cells viral stock supernatant) infected in human MT4 cells assessed as inhibition of early stage viral replication preincubated for 3 to 4 hrs in presence of polybrene followed by fresh media replacement with compound and measured after 48 hrs by flow cytometric analysis relative to control. The following applies: time 51-52 hrs. Format: functional.

Assay [10] addresses T1, Human immunodeficiency virus type 1 integrase. The description is as §1.

Each structure is given as a SMILES string. Calls of active or inactive are those of the source. The rule behind the calls is not given here.

T1 sequence (Q7ZJM1 whole entry): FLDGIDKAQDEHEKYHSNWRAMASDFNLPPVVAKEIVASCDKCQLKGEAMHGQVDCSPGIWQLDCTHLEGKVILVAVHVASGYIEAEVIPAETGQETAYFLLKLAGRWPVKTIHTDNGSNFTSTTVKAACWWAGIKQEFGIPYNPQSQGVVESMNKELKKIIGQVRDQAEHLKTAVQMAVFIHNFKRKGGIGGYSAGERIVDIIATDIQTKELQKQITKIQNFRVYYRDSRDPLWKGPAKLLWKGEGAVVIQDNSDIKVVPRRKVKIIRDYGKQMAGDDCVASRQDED
Human immunodeficiency virus type 1 integrase (Human immunodeficiency virus 1), sequence (Q7ZJM1 as listed by the source): as the sequence (Q7ZJM1 whole entry) above

Broadly, the inhibition is the relative decrease from the control value, in per cent. As a reminder, the IC50 is the concentration at which inhibition is half-maximal. Broadly, the EC50 is the concentration at which the effect is half-maximal. Regarding `O=C(O)/C(O)=C/C(=O)c1ccc2c(c1)c(=O)c(C(=O)/C=C(\O)C(=O)O)cn2Cc1ccc(F)cc1`, the inhibition result in assay [1] and in assay [2] was “Active” each time. The IC50 in [3] was determined as 0.84 µM. Moreover, the half-maximal effective concentration (EC50) in assay [4] came out at 2.27 µM. For the same molecule, the inhibition at 25 µM in assay [5] is 40%.
As for `CCOC(=O)/C(O)=C/C(=O)c1ccc2[nH]cc(C(=O)/C=C(\O)C(=O)OCC)c(=O)c2c1`, the 50% inhibitory concentration (IC50) in assay [6] turned out to be 2.34 µM; in assay [3], 2.22 µM. Also, the inhibition entry in assay [1] and in assay [2] was “Active” throughout.
As to `CCOC(=O)/C(O)=C/C(=O)c1cn(Cc2ccc(F)cc2)c2ccc(C(=O)c3ccc(C(=O)OCC)cc3)cc2c1=O`, the 50% inhibitory concentration (IC50) in [6] was 0.741 µM. In addition, the inhibition result in [1] and in assay [7] was “Active” in each case. For the same molecule, in [2], the inhibition result is “inactive”.
As for `CN(C)c1cc2c(cc1C(=O)/C=C(\O)C(=O)O)c(=O)c(C(=O)/C=C(\O)C(=O)O)cn2Cc1ccc(F)cc1`, the IC50 in assay [6] came to 0.181 µM; in [3], 0.75 µM. The inhibition entry in assay [1] was “Active”. In addition, the inhibition result in assay [2] was “inactive”. Moreover, the EC50 in assay [4] is above 6.25 µM. The result in assay [8] was inactive. For the same molecule, in assay [9], the “inhibition (INH)” value amounted to 38%.
As to `CCOC(=O)/C(O)=C/C(=O)c1ccc2c(c1)c(=O)c(C(=O)/C=C(\O)C(=O)OCC)cn2Cc1ccc(F)cc1`, the IC50 in assay [6] was found to be 0.8 µM; in assay [3], 1.98 µM. Further, the inhibition entry in assay [1] is “Active”. Further, the inhibition result in assay [2] was “inactive”.
As for `CCOC(=O)/C(O)=C/C(=O)c1cc2c(=O)c(C(=O)/C=C(\O)C(=O)OCC)cn(Cc3ccc(F)cc3)c2cc1N(C)C`, the IC50 in assay [6] amounted to 0.48 µM; in [3] it was 1.04 µM. Further, the half-maximal effective concentration (EC50) is above 200 µM in [10] and above 6.25 µM in [4]. Further, the inhibition result in [2] is “inactive”. For the same molecule, in [8], the result was inactive. For the same molecule, in assay [9], the “inhibition (INH)” value was found to be 50%.
As for `O=C(O)/C(O)=C/C(=O)c1cn(Cc2ccc(F)cc2)c2ccc(C(=O)c3ccc(C(=O)O)cc3)cc2c1=O`, the 50% inhibitory concentration (IC50) was found to be 0.077 µM in assay [6] and 1.57 µM in assay [3]. Besides, the inhibition entry in assay [1] is “Active”. In addition, the inhibition result in assay [2] was “inactive”.
In the case of `O=C(O)c1cn(Cc2ccc(F)cc2)c2ccc(OCc3cccc4ccccc34)cc2c1=O`, the IC50 in [6] worked out at 36.5 µM. The same molecule registered a concentration for a half-maximal effect (EC50) in [10] above 200 µM. Also, in [2], the inhibition entry is “inactive”. In assay [7], the inhibition result is “Active”.
The like results for `CCOC(=O)c1cn(Cc2ccc(F)cc2)c2ccc(OCc3cccc4ccccc34)cc2c1=O` were, in that order, 41.9 µM, above 200 µM, “inactive” and “Active”.
In assay [6], `O=C(O)c1cn(Cc2ccc(F)cc2)c2ccc(Oc3ccccc3)cc2c1=O` yielded an IC50 above 200 µM. In addition, the inhibition entry in assay [1] and in assay [7] was “Active” in each case. Further, the inhibition entry in [2] was “inactive”.
As to `CCOC(=O)/C(O)=C/C(=O)c1cc2c(=O)c(C(=O)/C=C(\O)C(=O)OCC)cn(Cc3ccc(F)cc3)c2cc1N1CCN(C)CC1`, the IC50 in [6] worked out at 0.782 µM; in assay [3], 4.19 µM. The inhibition result in assay [1] was “Active”. Further, the inhibition result in [2] was “inactive”.
With `CCOC(=O)c1cn(Cc2ccc(F)cc2)c2ccc(OCc3ccc(OCc4ccccc4)cc3)cc2c1=O`, in assay [6], the IC50 was above 200 µM. The inhibition entry in assay [1] and in [7] was “Active” each time. Moreover, the inhibition entry in assay [2] was “inactive”.
`O=C(O)c1cn(Cc2ccc(F)cc2)c2ccc(OCc3ccc(F)cc3)cc2c1=O` returned a concentration for half-maximal inhibition (IC50) in assay [6] above 200 µM. In addition, the inhibition entry in assay [1] and in [2] was “inactive” in each case. Besides, the inhibition entry in [7] was “Active”.
Take `O=C(O)c1cn(Cc2ccc(F)cc2)c2ccc(OCc3ccc(OCc4ccccc4)cc3)cc2c1=O`: in assay [6], the IC50 came out at 6.28 µM. Also, in assay [10], the EC50 is above 2 µM. The inhibition result in assay [2] was “inactive”. For the same molecule, in assay [7], the inhibition entry is “Active”.
Take `O=C(O)/C(O)=C/C(=O)c1ccc2[nH]cc(C(=O)/C=C(\O)C(=O)O)c(=O)c2c1`: the IC50 in assay [6] is 3.14 µM; in assay [3], 1.33 µM. The inhibition result in assay [1] and in assay [2] was “Active” in each case.
